In assay [1] the target is Glutamate receptor ionotropic, NMDA 1 (Rattus norvegicus, UniProt P35439).
Assay [2] addresses Glutamate receptor ionotropic, kainate 1 (Rattus norvegicus, UniProt P22756).
The target of another assay is Glutamate receptor 3 (Rattus norvegicus, UniProt P19492).

This passage reports Ki results from BindingDB's records for doi:10.1124/mol.53.2.195 (Suntory Institute For Bioorganic Research, 1998).

Chain of Glutamate receptor ionotropic, kainate 1 (P22756 whole entry): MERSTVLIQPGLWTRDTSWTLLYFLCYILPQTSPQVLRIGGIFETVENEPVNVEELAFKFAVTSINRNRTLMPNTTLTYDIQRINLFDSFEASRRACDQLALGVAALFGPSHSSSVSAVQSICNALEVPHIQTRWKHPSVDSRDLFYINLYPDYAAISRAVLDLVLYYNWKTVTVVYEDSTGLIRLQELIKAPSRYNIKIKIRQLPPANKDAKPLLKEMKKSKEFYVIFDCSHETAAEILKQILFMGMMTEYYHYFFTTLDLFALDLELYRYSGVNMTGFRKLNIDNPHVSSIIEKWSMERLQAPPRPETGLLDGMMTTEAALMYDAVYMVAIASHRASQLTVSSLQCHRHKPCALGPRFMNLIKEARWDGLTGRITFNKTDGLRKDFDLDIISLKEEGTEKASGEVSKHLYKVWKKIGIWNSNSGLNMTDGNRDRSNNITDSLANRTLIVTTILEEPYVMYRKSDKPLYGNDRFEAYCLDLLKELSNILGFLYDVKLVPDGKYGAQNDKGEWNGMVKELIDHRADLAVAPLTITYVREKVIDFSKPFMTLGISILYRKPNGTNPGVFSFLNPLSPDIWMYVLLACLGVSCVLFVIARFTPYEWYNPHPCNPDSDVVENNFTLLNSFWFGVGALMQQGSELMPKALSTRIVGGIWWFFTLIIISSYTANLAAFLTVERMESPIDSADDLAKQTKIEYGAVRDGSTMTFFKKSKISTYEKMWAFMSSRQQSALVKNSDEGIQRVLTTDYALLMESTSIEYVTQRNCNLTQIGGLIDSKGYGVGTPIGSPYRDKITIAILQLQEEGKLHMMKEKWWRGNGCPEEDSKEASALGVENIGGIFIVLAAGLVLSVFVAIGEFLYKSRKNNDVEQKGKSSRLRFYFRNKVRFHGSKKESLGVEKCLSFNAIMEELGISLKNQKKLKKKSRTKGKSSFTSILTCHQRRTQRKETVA
Chain of Glutamate receptor 3 (P19492 whole entry): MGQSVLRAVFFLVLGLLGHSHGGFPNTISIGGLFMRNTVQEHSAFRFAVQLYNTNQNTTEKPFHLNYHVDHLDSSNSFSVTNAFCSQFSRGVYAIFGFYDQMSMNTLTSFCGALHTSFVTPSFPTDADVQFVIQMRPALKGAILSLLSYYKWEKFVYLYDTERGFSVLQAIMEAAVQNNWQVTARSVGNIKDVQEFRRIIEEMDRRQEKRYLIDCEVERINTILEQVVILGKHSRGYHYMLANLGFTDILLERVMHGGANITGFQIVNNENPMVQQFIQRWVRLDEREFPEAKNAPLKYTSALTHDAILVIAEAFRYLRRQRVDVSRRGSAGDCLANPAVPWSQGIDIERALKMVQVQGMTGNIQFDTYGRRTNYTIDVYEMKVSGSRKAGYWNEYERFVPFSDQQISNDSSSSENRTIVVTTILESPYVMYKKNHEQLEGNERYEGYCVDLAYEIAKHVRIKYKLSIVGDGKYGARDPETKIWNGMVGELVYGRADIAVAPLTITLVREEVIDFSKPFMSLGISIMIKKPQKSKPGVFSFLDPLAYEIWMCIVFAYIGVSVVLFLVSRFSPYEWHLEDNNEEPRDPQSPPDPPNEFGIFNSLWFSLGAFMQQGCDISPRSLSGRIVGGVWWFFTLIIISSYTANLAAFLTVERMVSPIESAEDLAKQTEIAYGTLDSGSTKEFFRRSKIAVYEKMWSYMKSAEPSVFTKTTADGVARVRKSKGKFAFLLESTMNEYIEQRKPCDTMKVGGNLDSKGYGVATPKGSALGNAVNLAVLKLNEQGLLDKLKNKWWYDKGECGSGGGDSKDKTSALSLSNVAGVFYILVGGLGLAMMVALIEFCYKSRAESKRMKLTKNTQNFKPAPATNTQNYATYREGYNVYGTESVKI

The Ki is a dissociation constant, usually derived from enzyme kinetics or from competition with a known ligand. As for `N[C@H](C(=O)O)[C@H](OC(=O)c1ccccc1)C(=O)O` (racemic) [DL-TBzOAsp], the Ki (in assay [1]; in assay [2]; on Glutamate receptor 3) was more than 10 µM each time.

`N[C@H](C(=O)O)[C@H](O)C(=O)O` (racemic) [DL-THA]: the Ki (in assay [1]; in assay [2]; on Glutamate receptor 3) was more than 10 µM each time.

As to `N[C@H](C(=O)O)[C@H](OCc1ccccc1)C(=O)O` [DL-TBOA], the Ki (in assay [1]; in assay [2]; on Glutamate receptor 3) was more than 10 µM each time.

`N[C@H](C(=O)O)[C@H]1C[C@H]1C(=O)O` [L-CCG-IV] displayed a Ki in assay [1] of 0.008 µM. That is a single-digit nanomolar value.

Turning to `CN[C@H](CC(=O)O)C(=O)O` [NMDA], the Ki in assay [1] was determined as 5.5 µM.

Consider `CC(C)[C@H]1CN[C@H](C(=O)O)[C@H]1CC(=O)O` [dihydrokainic acid], for which the Ki in assay [1] is more than 10 µM; in assay [2], 6 µM; on Glutamate receptor 3, more than 10 µM.

Consider `O=C(O)[C@H]1CN[C@H](C(=O)O)C1` [t-PDC], for which the Ki (in assay [1]; in assay [2]; on Glutamate receptor 3) was more than 10 µM each time.
